Measured values published in PubChem BioAssay (NCI).
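Here, GI50 denotes the concentration required for 50% inhibition of growth. At the TGI there is no net growth.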

Assays:
Assay in all cases: NCI anticancer screen, dose series, 384-well format
SK-MEL-5 melanoma = test system: SK-MEL-5 melanoma
A498 renal = test system: A498 renal
SF-268 CNS = test system: SF-268 CNS
HCT-116 colon = test system: HCT-116 colon
BT-549 breast = test system: BT-549 breast
SF-539 CNS = test system: SF-539 CNS
MCF7 breast = test system: MCF7 breast
MALME-3M melanoma = test system: MALME-3M melanoma
U251 glioblastoma = test system: U251 glioblastoma
ACHN renal = test system: ACHN renal
OVCAR-4 ovarian = test system: OVCAR-4 ovarian
HCT-15 colon = test system: HCT-15 colon
SF-295 CNS = test system: SF-295 CNS
CCRF-CEM leukemia = test system: CCRF-CEM leukemia
OVCAR-3 ovarian = test system: OVCAR-3 ovarian
CAKI-1 renal = test system: CAKI-1 renal
NCI-H460 NSCLC = test system: NCI-H460 NSCLC
SW-620 colon = test system: SW-620 colon
SR leukemia = test system: SR leukemia
SNB-19 CNS = test system: SNB-19 CNS
COLO 205 colon = test system: COLO 205 colon
RPMI-8226 leukemia = test system: RPMI-8226 leukemia
SN12C renal = test system: SN12C renal
LOX IMVI melanoma = test system: LOX IMVI melanoma
SK-MEL-28 melanoma = test system: SK-MEL-28 melanoma
UO-31 renal = test system: UO-31 renal
UACC-62 melanoma = test system: UACC-62 melanoma
SK-MEL-2 melanoma = test system: SK-MEL-2 melanoma

CCN1C(C)(C)CC(Oc2ccc(C(=O)Nc3ccc(NC(=O)Nc4cc(C(C)(C)C)on4)cc3)nc2)CC1(C)C gave a GI50 (SK-MEL-5 melanoma) of 1520 nM, a TGI (SK-MEL-5 melanoma) of 2860 nM and a GI50 (A498 renal) of 1600 nM. The TGI (A498 renal) was 3020 nM, the GI50 (SF-268 CNS) was 1680 nM and the TGI (SF-268 CNS) was 3110 nM. It also gave a GI50 (HCT-116 colon) of 1630 nM, a TGI (HCT-116 colon) of 3010 nM and a GI50 (BT-549 breast) of 1550 nM. It also gave a TGI (BT-549 breast) of 2900 nM, a GI50 (SF-539 CNS) of 1300 nM and a TGI (SF-539 CNS) of 2580 nM. It also gave a GI50 (MCF7 breast) of 1550 nM, a TGI (MCF7 breast) of 2910 nM and a GI50 (MALME-3M melanoma) of 1410 nM. It also gave a TGI (MALME-3M melanoma) of 2720 nM, a GI50 (U251 glioblastoma) of 1650 nM and a TGI (U251 glioblastoma) of 3030 nM. The GI50 (ACHN renal) was 1750 nM, the TGI (ACHN renal) was 3200 nM and the GI50 (OVCAR-4 ovarian) was 1560 nM. It also gave a TGI (OVCAR-4 ovarian) of 3770 nM, a GI50 (HCT-15 colon) of 1610 nM and a TGI (HCT-15 colon) of 2990 nM. It also gave a GI50 (SF-295 CNS) of 1840 nM, a TGI (SF-295 CNS) of 3250 nM and a GI50 (CCRF-CEM leukemia) of 1800 nM. For the same molecule, the TGI (CCRF-CEM leukemia) was 3200 nM, the GI50 (OVCAR-3 ovarian) was 1690 nM and the TGI (OVCAR-3 ovarian) was 3100 nM. For the same molecule, the GI50 (CAKI-1 renal) was 1620 nM, the TGI (CAKI-1 renal) was 3220 nM and the GI50 (NCI-H460 NSCLC) was 1800 nM. It also gave a TGI (NCI-H460 NSCLC) of 3240 nM, a GI50 (SW-620 colon) of 1940 nM and a TGI (SW-620 colon) of 3380 nM. It also gave a GI50 (SR leukemia) of 1290 nM, a TGI (SR leukemia) of 2570 nM and a GI50 (SNB-19 CNS) of 1980 nM. For the same molecule, the TGI (SNB-19 CNS) was 3480 nM, the GI50 (COLO 205 colon) was 1790 nM and the TGI (COLO 205 colon) was 3200 nM. For the same molecule, the GI50 (RPMI-8226 leukemia) was 654 nM, the TGI (RPMI-8226 leukemia) was 1750 nM and the GI50 (SN12C renal) was 1710 nM. For the same molecule, the TGI (SN12C renal) was 3090 nM, the GI50 (LOX IMVI melanoma) was 1860 nM and the TGI (LOX IMVI melanoma) was 3270 nM. The GI50 (SK-MEL-28 melanoma) was 1580 nM, the TGI (SK-MEL-28 melanoma) was 2940 nM and the GI50 (UO-31 renal) was 1760 nM. The TGI (UO-31 renal) was 3210 nM, the GI50 (UACC-62 melanoma) was 1870 nM and the TGI (UACC-62 melanoma) was 3290 nM. The GI50 (SK-MEL-2 melanoma) was 1250 nM and the TGI (SK-MEL-2 melanoma) was 2500 nM.
